According to PubChem BioAssay AID562 (University of Pittsburgh Molecular Library Screening Center, 2006):
Active and inactive are the calls of the source. The rule behind the calls is not given here.

These compounds were tested against Dual specificity protein phosphatase 1 (Homo sapiens) (UniProt P28562) (assay: MKP-1 phosphatase inhibitors with catalase, dose response, biochemical, catalase added, active/probe assessment (AID 562)). Details: recombinant MKP-1 phosphatase, fluorescence.
Dual specificity protein phosphatase 1 (Homo sapiens), sequence (P28562 whole entry, looked up): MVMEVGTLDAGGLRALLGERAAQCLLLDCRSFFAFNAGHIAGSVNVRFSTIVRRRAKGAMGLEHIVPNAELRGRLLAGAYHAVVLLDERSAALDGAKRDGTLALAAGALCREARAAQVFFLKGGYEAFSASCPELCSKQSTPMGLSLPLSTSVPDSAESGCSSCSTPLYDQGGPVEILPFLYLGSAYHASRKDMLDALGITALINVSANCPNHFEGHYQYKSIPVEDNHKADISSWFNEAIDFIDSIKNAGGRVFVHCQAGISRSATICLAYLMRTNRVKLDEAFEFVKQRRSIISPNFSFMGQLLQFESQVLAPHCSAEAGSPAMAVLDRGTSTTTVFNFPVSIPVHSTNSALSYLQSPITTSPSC

Row | Compound | IC50
1 | CC1=C(/C=C/C(C)=C/C=C/C(C)=C/C(=O)O)C(C)(C)CCC1 | 48.6 µM
2 | Cc1nc2cc(-c3cccc(F)c3)nn2c(C)c1CCC(=O)N1CCC2(CC1)OCCO2 | > 50 µM (inactive)
3 | O=C(Nc1ccc2nc(-c3ccco3)c(-c3ccco3)nc2c1)N1CCCCCC1 | 24.1 µM
4 | CCCCCNC(=O)c1ccc2c(=O)[nH]c3c(C(=O)NCC4CCCO4)sc(=S)n3c2c1 (stereo unspecified) | 36.7 µM
5 | CCOc1ccc(-c2cc3nc(C4CCN(C(=O)OC(C)(C)C)CC4)c(C(=O)O)cn3n2)cc1 | 27.7 µM
6 | O=C(Nc1ccccc1)c1ccc2nc(-c3ccco3)c(-c3ccco3)nc2c1 | 32 µM
7 | O=C1Nc2ccccc2SC(c2ccccc2)C1O (stereo unspecified) | 35.5 µM
8 | CCCCn1c(SCC(=O)c2ccc(OC)cc2OC)nc2cc(S(N)(=O)=O)ccc21 | 42.1 µM
9 | CCOc1cc(/C=C(/C#N)c2ccc(F)cc2)ccc1OCc1ccc(C(=O)O)o1 | 41.8 µM
10 | O=C(c1cccs1)c1no[n+]([O-])c1C(=O)c1cccs1 | 6.96 µM
11 | N#Cc1c(NC(=O)c2ccc(Br)o2)n(-c2ccccc2)c2nc3ccccc3nc12 | > 50 µM (inactive)
12 | CCCCn1c(NC(=O)c2ccccc2)c(C#N)c2nc3ccccc3nc21 | 32.4 µM
13 | Nc1c(N2CCCC2)cc(Cl)c2nonc12 | > 50 µM (inactive)
14 | CCn1c(SCC(=O)Nc2ccc3c(c2)c2ccccc2n3CC)nnc1-c1ccco1 | 21.1 µM
15 | FC(F)(F)c1ccc(N2CCOCC2)c(Nc2nc3ccccc3n3cnnc23)c1 | > 50 µM (inactive)
16 | COc1ccc(Br)cc1/C=c1\sc2nc(-c3ccco3)nn2c1=O | 17.2 µM
17 | O=C1C=Cc2ccccc2C1=O | 22.5 µM
18 | Cc1nc2c(C(=O)NCCC3=CCCCC3)c[nH]n2c(=O)c1Cl | 49.9 µM
19 | [O-]/[N+](=C/c1ccc(F)cc1)c1ccccc1 | > 50 µM (inactive)

Row | Compound | IC50
20 | COC(=O)c1ccccc1NC(=O)CN1C(=O)C2CCCN2c2ncc(Cl)cc21 (stereo unspecified) | > 50 µM (inactive)
21 | COc1ccc(Cn2c(C)nc3c(c2=O)c2nc4ccccc4nc2n3Cc2ccco2)cc1 | 22 µM
22 | CC(C)(C)N1C(=O)Cc2c1nc(N)c1c(N)nc(N3CCCCC3CO)c(C#N)c21 (stereo unspecified) | > 50 µM (inactive)
23 | Cc1ccc(-c2csc(NC(=O)c3ccno3)n2)cc1 | 49.8 µM
24 | Cc1ccc(/C=C/C2=Cc3c(sc(NC(=O)CSc4n[nH]c(N)n4)c3C#N)C(C)(C)C2)o1 | 19.8 µM
25 | Cn1ncnc2c(=O)n(C)c(=O)nc1-2 | > 50 µM (inactive)
26 | CCc1ccc(NC(=O)CSc2nc3ccccc3c(=O)n2CCN2CCOCC2)cc1 | > 50 µM (inactive)
27 | CC(=O)[C@@H]1[C@@H]2C(=O)N(c3ccc(F)c(Cl)c3)C(=O)[C@@H]2C2c3ccccc3C=CN21 (stereo partly specified) | > 50 µM (inactive)
28 | CCOC(=O)c1ccc2c(c1)C1C=CCC1C(C(=O)O)N2 (stereo unspecified) | 32.7 µM
29 | COc1ccc(-n2c(NC(=O)c3ccco3)c(C#N)c3nc4ccccc4nc32)cc1 | > 50 µM (inactive)
30 | Cc1c(N=c2c(=O)c3ccccc3c2=O)c(=O)n(-c2ccccc2)n1C | > 50 µM (inactive)
31 | CCCSc1nnc(NC(=O)c2sc3nc(-c4cccs4)ccc3c2N)s1 | 25.7 µM
32 | CCn1nc(-c2cccs2)nc2c(=O)n(C)c(=O)nc1-2 | > 50 µM (inactive)
33 | CC(C)Cn1c(N)c(C(=O)COC(=O)c2cc(-c3ccco3)nc3ccccc23)c(=O)n(C)c1=O | 25.5 µM
34 | COc1ccc(-c2cc3nc(C4CCN(C(=O)OC(C)(C)C)CC4)c(C(=O)O)cn3n2)cc1 | 36.3 µM
35 | Cc1cccc(N2CCN(C(=O)Cc3c(C(=O)O)[nH]c4ccc(Cl)cc34)CC2)c1C | 46.8 µM
36 | [O-]/[N+](=C\c1ccncc1)c1ccccc1 | 46.6 µM
37 | CC(C)Sc1nc2sc3c(c2c2nnc(SCC(=O)NCc4ccco4)n12)CCCC3 | 22.7 µM
38 | CCCCNC(=O)c1c(N)n(CCCOC)c2nc3ccccc3nc12 | > 50 µM (inactive)

Row | Compound | IC50
39 | Cc1ccc(C)n1-c1cccc(C(=O)O)c1 | 16.9 µM
40 | CCCCCC#CCC#CCC#CCC#CCCCC(=O)O | 13.1 µM
41 | Nc1nc2c(s1)CCc1c-2cnn1-c1ccccc1 | > 50 µM (inactive)
42 | COc1ccc2noc3c2c1C(=O)c1ccccc1-3 | 14.3 µM
43 | COc1cc(/C=C(/C#N)c2ccc(F)cc2)ccc1OCc1ccc(C(=O)O)o1 | > 50 µM (inactive)
44 | O=C(OC1CCCCC1)c1ccc2c(c1)C1C=CCC1C(C(=O)O)N2 (stereo unspecified) | 17.5 µM
45 | Cc1cc(NC(=O)c2ccc(S(=O)(=O)N3CCCC3)cc2)nc2c1c(=O)oc1ccccc12 | 26.1 µM
46 | Cc1cc(C)n2c(SCC(=O)N3CCN(S(=O)(=O)c4ccc(Cl)cc4)CC3)nnc2n1 | 49.9 µM
47 | N#Cc1c(N)sc(=S)c2c1CCN(Cc1ccccc1)C2 | > 50 µM (inactive)
48 | O=C(NC1(O)C(=O)c2ccccc2C1=O)c1ccccc1 | > 50 µM (inactive)
49 | O=C1c2ccccc2-c2onc3ccc(NCCCn4ccnc4)c1c23 | 35.2 µM
50 | COCCCn1c(N)c(C(=O)NCCC(C)C)c2nc3ccccc3nc21 | > 50 µM (inactive)
51 | Cc1cccc(NC(=O)c2cc(NC(=O)C3CCCCC3C(=O)O)ccc2N2CCCCC2)c1 (stereo unspecified) | > 50 µM (inactive)
52 | CCOc1ccc2noc3c2c1C(=O)c1ccccc1-3 | 30.2 µM
53 | N#Cc1c(N2CCCC2)nc(N)c2c(N)nc(N3CCCC3)cc12 | > 50 µM (inactive)
54 | O=C1C=C(NCc2ccc(Cl)c(Cl)c2)CC1 | > 50 µM (inactive)
55 | [O-]/[N+](=C\c1ccc(OC(F)F)cc1)c1ccccc1 | > 50 µM (inactive)
56 | CCn1nc(-c2ccccc2)nc2c(=O)n(C)c(=O)nc1-2 | > 50 µM (inactive)
